{"source": "paper PMC7785802", "about": "“Therapeutic Efficacy of a Trichinella Spiralis Paramyosin-Derived Peptide Modified With a Membrane-Targeting Signal in Mice With Antigen-Induced Arthritis” (Frontiers in Microbiology, 2020)", "key": {"human C9": {"system": "human C9", "assay": "Zn2+-induced human C9 polymerization assay", "assay_type": "biochemical", "details": "for inhibition of Zn2+-induced C9 polymerization at 5.24 μmol: peptide 5.24 μmol", "protocol": "Certain concentrations of C9 can polymerize when induced by certain concentrations of Zn^2+. However, the polymerization can be suppressed when C9 binds to inhibitors. C9 polymerization assays were used to evaluate the inhibitory effect of the peptides on Zn^2+-induced polymerization of human C9. Briefly, 2 μg C9 was preincubated with the peptides in 20 mM Tris buffer (pH 7.2) at 37°C for 40 min and then 50 μM Zn^2+ was added to induce C9 polymerization at 37°C for 2 h. The samples were subjected to 2.5–15% polyacrylamide gel electrophoresis to assess the inhibitory effects of the peptides on human C9 polymerization; the gels were visualized by staining with Coomassie blue.\n(§1) Figure 1 Modified peptide bound to human complement C9 and inhibited C9 polymerization-induced bio-function. (A) Microscale thermophoresis assay (NanoTemper) in which biomolecular interactions were quantitated by examining the motion of the molecules along a microscopic temperature gradient induced by an infrared laser. Changes in the molecular hydration shell, charge, or size are measured using a fluorescent probe (NT-647) bound covalently to the human C9. Binding of control, modified and original peptides to human C9 were studied. Data points indicate the differences in normalized fluorescence (%) generated by peptides binding to […], and curves indicate the calculated fits. […] Error bars represent the standard error of three independent measurements. […] Lane M: standard protein markers; lane 1: blank control (C9 without Zn^2+); lane 2: positive control (C9 with Zn^2+); lane 3: 5.24 μmol original peptide; lanes 4–6, 1.31, 2.62, and 5.24 μmol modified peptide, respectively; lane 7, 5.24 μmol control peptide. (C) Normal human serum (NHS)-induced complement-mediated hemolysis was inhibited by the modified and original peptides (2.62 and 5.24 μmol) compared to the control peptide. All experiments were performed three times and data are presented as mean ± SD. *p < 0.05, **p < 0.01."}, "[1]": {"system": "complement in normal human serum (NHS); rabbit erythrocytes", "assay": "NHS-induced complement-mediated hemolysis of rabbit erythrocytes (alternative pathway)", "assay_type": "cell-based", "details": "for inhibition of NHS-induced erythrocyte lysis, concentration dependence: NHS 1:12.5, peptide 1.31, 2.62, 5.24 μmol, Mg-EGTA, 37°C 40 min, then rabbit erythrocytes 1 × 10^8, 30 min 37°C, absorbance 412 nm; for inhibition of NHS-induced erythrocyte lysis, concentration dependence / inhibition of NHS-induced hemolysis compared to control peptide: three experiments; for inhibition of NHS-induced erythrocyte lysis at 5.24 μmol: peptide 5.24 μmol, NHS 1:12.5; for inhibition of NHS-induced hemolysis compared to control peptide: peptide 2.62 and 5.24 μmol, *p < 0.05, **p < 0.01", "protocol": "Normal human serum (NHS) was collected from six healthy volunteers, and the donation procedure was approved by the Institutional Review Board (IRB) of Capital Medical University (approval number: 2016SY01). After venous blood was collected, it was clotted in serum separator tubes for 4 h at room temperature and then centrifuged at 1,000 g for 30 min to obtain the serum. The serum was divided into aliquots and stored at −80°C. To obtain normal mouse serum (NMS), blood was collected in the […] of mice under ether anesthesia and the serum was separated and stored as described above.\nWhen rabbit erythrocytes are placed in xenogeneic serum (such as NHS or NMS), the alternative pathway of the complement system is activated, causing lysis of the rabbit erythrocytes. To evaluate the effects of the peptides on the complement activation-mediated erythrocyte lysis (involving the alternative complement pathway), NHS or NMS (1:12.5) was incubated with various concentrations of peptides (1.31, 2.62, and 5.24 μmol) in Mg-EGTA solution (5 mM MgCl2, 10 mM EGTA) at 37°C for 40 min before adding the mixture to freshly washed erythrocytes (1 × 10^8) in gelatin veronal-buffered saline (pH 7.4, containing 0.1% gelatin) for 30 min at 37°C. Lysis was stopped with cold Hanks' Balanced Salt Solution (HBSS^++) containing 10 mM ethylenediaminetetraacetic acid (EDTA). The samples were then centrifuged at 1,000 g for 10 min to obtain the supernatant, and the amount of released hemoglobin in the supernatant was determined by measuring the absorbance at 412 nm. The hemolytic activity relative to the water-induced lysis among the same number of erythrocytes was calculated.\nas §1"}, "mouse ATDC5 cells": {"system": "mouse ATDC5 cells", "assay": "Peptide binding to cell surface, flow cytometry", "assay_type": "cell-based", "details": "1 h room temperature, streptavidin-FITC; for binding to cell membrane of ATDC5 cells (flow cytometry) at 260 nmol: biotin-labeled peptide", "from_the_text": "The mouse ATDC5 chondrogenic cell line is an important chondrocyte model that has been widely used in the study of chondrocyte proliferation and differentiation. This cell line was used to evaluate the membrane-binding ability of the modified peptide, as articular cartilage (which contains chondrocytes) is one of the main cellular components in the joint cavity. The cells were purchased from Guangzhou Jennio Biotech Co., Ltd. (Guangzhou, China) and maintained in Dulbecco's Modified Eagle Medium (DMEM, ThermoFisher, America) supplemented with 10% fetal bovine serum (FBS, Gibco, Australia) at 37°C in a humidified atmosphere with 5% CO2. The 5th−10th passages of the cells were used in the study.\nTo assess the binding ability of the modified peptide to the cell membrane, the three peptides were labeled with biotin at the C-terminus. Cultured mouse ATDC5 cells were washed with phosphate-buffered saline (PBS) and incubated with various concentrations of the control, original or modified peptides (65, 130, and 260 nmol, respectively) for 1 h at room temperature. After washing twice with PBS to remove the unbound peptides, streptavidin-fluorescein isothiocyanate (FITC; eBioscience, California, USA) was added and incubated for 0.5 h at room temperature. The cells were washed and resuspended in PBS and then the binding of the peptides to the cell membrane was assessed by flow cytometry (BD Biosciences, California, USA). To further assess the retention of peptides on the surface of cells, the mouse ATDC5 cells were cultured in a 12-well culture plate which contains cell slides on the bottom. They were washed with PBS on the next day and then blocked with normal goat serum for 30 min at room temperature before incubation with various concentrations of peptides (260 nmol, 540 nmol, and 1.08 mmol). The binding of the peptides to the cell membrane was then assessed by staining with streptavidin-FITC (eBioscience). After being stained, the cells that had adhered to the cell slides were mounted using ProLong Gold Antifade reagent (ZSGB-BIO, Beijing, china) containing 4′,6-diamidino-2-phenylindole (DAPI, ThermoFisher, America) dye to stain the cell nuclei. They were then analyzed by confocal laser scanning microscopy (Leica, Germany).\nFigure 3 Modified peptide non-specifically bound to the cell surface. (A) Binding of peptides to the surface of mouse ATDC5 cells measured by flow cytometry. All experiments were performed three times and data are presented as mean ± SD. n = 5, ***p < 0.001, ns: not significant (p > 0.05). (B) Binding of various concentrations of biotin-labeled peptides on the surface of mouse ATDC5 cells assessed by confocal laser scanning microscopy. Arrowheads indicate the binding of the modified peptides on the surface of mouse ATDC5 cells."}, "[2]": {"details": "2 μg C9, 50 μM Zn2+, 37°C 2 h, PAGE, Coomassie blue"}}, "note": "Entries after “also recorded” stand apart in the source; their conditions may differ.", "data": [{"substance": "VSMGKSLSSKVYVM [original peptide, tetradecapeptide derived from Trichinella spiralis paramyosin (Ts-pmy)]", "values": [{"measurement": "inhibition of Zn2+-induced C9 polymerization at 5.24 μmol", "setting": "human C9; [2]", "result": "fully inhibited"}, {"measurement": "inhibition of NHS-induced erythrocyte lysis, concentration dependence", "setting": "[1]", "result": "significantly inhibited in a dose-dependent manner"}, {"measurement": "inhibition of NHS-induced erythrocyte lysis at 5.24 μmol", "setting": "[1]", "result": "greatest inhibition"}, {"measurement": "inhibition of NHS-induced hemolysis compared to control peptide", "setting": "[1]", "result": "inhibited"}, {"measurement": "binding to cell membrane of ATDC5 cells (flow cytometry) at 260 nmol", "setting": "mouse ATDC5 cells; 260 nmol", "result": "did not bind to the cell membrane"}]}, {"substance": "Myr-GSSKSPSKKKKKKPG-ACP-VSMGKSLSSKVYVM [modified peptide, Ts-pmy-derived peptide modified with a membrane-targeting signal]", "values": [{"measurement": "inhibition of Zn2+-induced C9 polymerization, concentration dependence", "setting": "human C9; 2 μg C9, 20 mM Tris pH 7.2, 37°C 40 min preincubation, 50 μM Zn2+ 2 h, peptide 1.31, 2.62, 5.24 μmol, 2.5–15% PAGE", "result": "inhibited Zn^2+-induced C9 polymerization in a dose-dependent manner"}, {"measurement": "inhibition of Zn2+-induced C9 polymerization at 2.62 μmol", "setting": "human C9; peptide 2.62 μmol, 2 μg C9, 50 μM Zn2+, 37°C 2 h, PAGE, Coomassie blue", "result": "slightly"}, {"measurement": "inhibition of Zn2+-induced C9 polymerization at 5.24 μmol", "setting": "human C9; [2]", "result": "fully inhibited; also recorded: completely"}, {"measurement": "inhibition of NHS-induced erythrocyte lysis, concentration dependence", "setting": "[1]", "result": "significantly inhibited in a dose-dependent manner"}, {"measurement": "inhibition of NHS-induced erythrocyte lysis at 5.24 μmol", "setting": "[1]", "result": "greatest inhibition"}, {"measurement": "inhibition of NHS-induced hemolysis compared to control peptide", "setting": "[1]", "result": "inhibited"}, {"measurement": "ATDC5 cells bound to peptide", "setting": "mouse ATDC5 cells; C-terminally biotin-labeled peptide, 260 nmol, flow cytometry, n = 5", "result": "~100", "unit": "%"}, {"measurement": "binding to cell surface of ATDC5 cells (flow cytometry), concentration dependence", "setting": "mouse ATDC5 cells; biotin-labeled peptide 65, 130, 260 nmol", "result": "bound to the cell surface of mouse ATDC5 cells in a dose-dependent manner"}]}, {"substance": "GKMSVMSVYKSVLS [control peptide, reference compound]", "values": [{"measurement": "inhibition of Zn2+-induced C9 polymerization at 5.24 μmol", "setting": "human C9; [2]", "result": "did not inhibit C9 polymerization"}, {"measurement": "inhibition of NHS-induced erythrocyte lysis, concentration dependence", "setting": "[1]", "result": "no difference in the erythrocyte lysis among the three concentrations"}, {"measurement": "binding to cell membrane of ATDC5 cells (flow cytometry) at 260 nmol", "setting": "mouse ATDC5 cells; 260 nmol", "result": "did not bind to the cell membrane"}]}]}
